Patent US9688624B2, “DP2 antagonist and uses thereof” (Brickell Biotech, Inc., priority 2010, dated 2017)
Where a name gives a salt, the structure may show the parent alone. Read-outs that look alike come from different tables or passages of the source.

Key:
[1] = Plasma concentrations in guinea pig allergic asthma model; assay type: in vivo; details: for concentration at 3 h: oral, 3 hours post dose, read-out: mean plasma Compound 1 concentration
Protocol: Plasma Compound 1 concentrations were determined 3 hours and 24 hours post dose. […] At 60 mg/kg, a mean plasma concentration of 371.7±303.8 was observed 3 hours post dose. At 100 mg/kg, a mean plasma concentration of 360.8±131.3 was observed 3 hours post dose.

CYP2C9 = CYP2C9 (Homo sapiens (Human), UniProt P11712); assay type: in vitro ADME; details: human hepatocytes, 10 μM
[2] = Phase I single ascending dose study in humans, pharmacokinetics; assay type: in vivo, human; details: for half-life / AUC(0-inf) / AUC(0-t) / Cmax / Tmax / Vd/F: human, plasma; for Vd/F: read-out: Vz/F
Source text: Example 22: Phase I Study in Humans
This is a phase 1, Single-Center, Double-Blind Study of Compound 2 in healthy volunteers.
To assess: (1) the safety and tolerability of single and multiple doses of Compound 2 following oral administration; and (2) the pharmacokinetics (PK) of Compound 2 after single and multiple doses; and (3) the effects of the pharmacodynamic (PD) responses in healthy subjects to Compound 2 as measured by a PGD2-induced eosinophil shape change assay (ESC).
The Single Ascending Dose (SAD) study will include 6 cohorts with 8 subjects each, 6 receiving the active treatment and 2 receiving the placebo. The SAD study will explore doses of 5, 15, 50, 150, 300 and 500 mg/day. Compound 2 (Pattern 1) is administered as API in a Capsule, prepared on site at the clinical pharmacy (see Example 10). Safety monitoring will include: a “how do you feel” (HDYF) question, adverse events reporting, physical examinations, vital signs, ECG's, and a biological assessment (clinical chemistry, hematology and urinalysis). The decision to escalate to the next dose level will be based on the results of medical monitoring, and a blinded interim analysis of pharmacokinetic parameters (AUC, Cmax) and pharmacodynamic responses. Doses may be adjusted based on the occurrence of adverse events. Subjects will be followed on site for 72 hours after dose administration.
The plasma concentrations of Compound 1 are determined by LC-MS/MS, giving a detection limit of 0.25 ng*mL^−1.
Pharmacokinetic measurements of Compound 2 includes measurement of the protonated form (Compound 1).

[3] = Regional dosing study in rat (pharmacokinetics); assay type: in vivo; details: for Tmax / AUC / Cmax / bioavailability / half-life: Sprague-Dawley, in vivo
Source text: Example 11: Regional Dosing Study
Male Sprague-Dawley rats (weighing from about 200 to about 300 grams) in the fasted state received a single injection of a solution of Compound 2 (5% methocel) in the duodenum, jejunum or ileum. This was compared with PO administration of the same formulation of Compound 2. […]

[4] = Gravimetric vapour sorption (GVS); assay type: physicochemical; details: 25° C.
Protocol: Example 5: Gravimetric Vapour Sorption (GVS)
Sorption isotherms were obtained using a SMS DVS Intrinsic moisture sorption analyzer, controlled by SMS Analysis Suite software. The sample temperature was maintained at 25° C. by the instrument controls. The humidity was controlled by mixing streams of dry and wet nitrogen, with a total flow rate of 200 ml·min-1. The relative humidity was measured by a calibrated Rotronic probe (dynamic range of 1.0-100% RH), located near the sample. The weight change, (mass relaxation) of the sample as a function of % RH was constantly monitored by the microbalance (accuracy ±0.005 mg). Typically 5-20 mg of sample was placed in a tared mesh stainless steel basket under ambient conditions. The sample was loaded and unloaded at 40% RH and 25° C. (typical room conditions). A moisture sorption isotherm was performed as outlined below (2 scans giving 1 complete cycle). The standard isotherm was performed at 25° C. at 10% RH intervals over a 0.5-90% RH range

CYP2C19 = CYP2C19 (Homo sapiens (Human), UniProt P33261); test: Extracellular cytochrome P450 inhibition (microsomes); details: IC50 (μM), 2C19, mephenytoin 4′-hydroxylation
[5] = single oral 5 mg capsule, healthy humans, mean
[6] = single oral 15 mg capsule, healthy humans, mean
[7] = single oral 50 mg capsule, healthy humans, mean
[8] = single oral 150 mg capsule, healthy humans, mean
[9] = single oral 300 mg capsule, healthy humans, mean
[10] = single oral 500 mg capsule, healthy humans, mean

CYP2C19, sequence (P33261 whole entry): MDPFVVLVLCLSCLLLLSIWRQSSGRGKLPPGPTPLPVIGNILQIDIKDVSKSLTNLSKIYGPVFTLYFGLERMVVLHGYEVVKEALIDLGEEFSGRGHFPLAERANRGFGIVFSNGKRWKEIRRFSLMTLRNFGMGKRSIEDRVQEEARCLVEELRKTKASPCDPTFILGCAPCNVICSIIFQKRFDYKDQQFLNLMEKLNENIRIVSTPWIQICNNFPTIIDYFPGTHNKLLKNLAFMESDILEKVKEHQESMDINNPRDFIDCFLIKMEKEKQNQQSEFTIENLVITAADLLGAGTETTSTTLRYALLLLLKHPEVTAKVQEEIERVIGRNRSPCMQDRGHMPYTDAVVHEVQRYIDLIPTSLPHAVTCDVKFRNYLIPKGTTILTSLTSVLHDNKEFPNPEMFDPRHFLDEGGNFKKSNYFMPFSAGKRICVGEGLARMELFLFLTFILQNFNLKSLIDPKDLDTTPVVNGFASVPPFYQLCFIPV

For `COc1ccc(CC(=O)O)cc1Oc1ccc(NC(=O)C(C)(C)C)cc1CSC(C)(C)C` [Compound 1, 2-(3-(2-((tert-butylthio)methyl)-4-(2,2-dimethyl-propionylamino)phenoxy)-4-methoxyphenyl)acetic acid], the concentration at 24 h ([1]; 24 hours after oral dose, each dose amount, below lower limit of quantitation, read-out: plasma Compound 1 concentration) was < 40 nM, the concentration at 3 h ([1]; 30 mg/kg) was 107 ± 31.7 nM and the concentration at 3 h ([1]; 60 mg/kg) was 372 ± 304 nM. For the same molecule, the concentration at 3 h ([1]; 100 mg/kg) was 361 ± 131 nM and the “induction of CYP2C9” value (CYP2C9) was “not a strong inducer”.

With `COc1ccc(CC(=O)O)cc1Oc1ccc(NC(=O)C(C)(C)C)cc1CSC(C)(C)C` [Compound 2, 2-(3-(2-((tert-butylthio)methyl)-4-(2,2-dimethyl-propionylamino)phenoxy)-4-methoxyphenyl)acetic acid, sodium salt] the half-life ([2]; oral, humans, 150 and 500 mg dose, read-out: long elim. t1/2) was ≤ 18 h, the half-life ([2]; oral, humans, SAD study, read-out: half life, increases with dose) was 1.2 to 7 h and the AUC(0-inf) [2, 5] was 6.2 ng·h/mL. It also gave an AUC(0-t) [2, 5] of 4.85 ng·h/mL, a Cmax [2, 5] of 2.69 ng/mL and a Tmax [2, 5] of 0.542 h. For the same molecule, the Vd/F [2, 5] was 1470 L, the half-life ([2]; single oral 5 mg capsule, healthy humans, mean, read-out: t1/2 (converted)) was 1.22 h and the AUC(0-inf) [2, 6] was 17.5 ng·h/mL. For the same molecule, the AUC(0-t) [2, 6] was 17 ng·h/mL, the Cmax [2, 6] was 8.31 ng/mL and the Tmax [2, 6] was 0.625 h. The Vd/F [2, 6] was 1760 L, the half-life ([2]; single oral 15 mg capsule, healthy humans, mean, read-out: t1/2 (converted)) was 1.23 h and the Cmax [2, 7] was 93.4 ng/mL. For the same molecule, the Tmax [2, 7] was 1.2 h, the Vd/F [2, 7] was 1500 L and the half-life ([2]; single oral 50 mg capsule, healthy humans, mean, read-out: t1/2 (converted)) was 1.49 h. For the same molecule, the AUC(0-inf) [2, 8] was 3460 ng·h/mL, the AUC(0-t) [2, 8] was 3450 ng·h/mL and the Cmax [2, 8] was 4630 ng/mL. For the same molecule, the Tmax [2, 8] was 0.542 h, the Vd/F [2, 8] was 1410 L and the half-life ([2]; single oral 150 mg capsule, healthy humans, mean, read-out: t1/2 (converted)) was 7.86 h. It also gave an AUC(0-inf) [2, 9] of 6980 ng·h/mL, an AUC(0-t) [2, 9] of 6970 ng·h/mL and a Cmax [2, 9] of 6690 ng/mL. The Tmax [2, 9] was 0.92 h, the Vd/F [2, 9] was 351 L and the half-life ([2]; single oral 300 mg capsule, healthy humans, mean, read-out: t1/2 (converted)) was 6.32 h. For the same molecule, the AUC(0-inf) [2, 10] was 26000 ng·h/mL, the AUC(0-t) [2, 10] was 26000 ng·h/mL and the Cmax [2, 10] was 25700 ng/mL. For the same molecule, the Tmax [2, 10] was 0.583 h, the Vd/F [2, 10] was 501 L and the half-life ([2]; single oral 500 mg capsule, healthy humans, mean, read-out: t1/2 (converted)) was 14.1 h. The CL/F [2, 5] was 886 L/h, the λz [2, 5] was 0.598 h⁻¹ and the CL/F [2, 6] was 982 L/h. The λz [2, 6] was 0.574 h⁻¹, the CL/F [2, 7] was 643 L/h and the λz [2, 7] was 0.485 h⁻¹. For the same molecule, the CL/F [2, 8] was 161 L/h, the λz [2, 8] was 0.130 h⁻¹ and the CL/F [2, 9] was 53.4 L/h. The λz [2, 9] was 0.19 h⁻¹, the CL/F [2, 10] was 21.8 L/h and the λz [2, 10] was 0.0904 h⁻¹. It also gave a Tmax ([3]; iv, 2 mg/kg) of 0.08 h, an AUC ([3]; male, 10 mg/kg, duodenum) of 5010 ng·h/mL and a Cmax ([3]; male, 10 mg/kg, duodenum) of 4310 ng/mL. For the same molecule, the Tmax ([3]; male, 10 mg/kg, duodenum) was 0.25 h, the bioavailability ([3]; male, 10 mg/kg, duodenum) was 27.3% and the half-life ([3]; male, 10 mg/kg, duodenum) was 4.12 h. The AUC ([3]; male, 10 mg/kg, ileum) was 1980 ng·h/mL, the Cmax ([3]; male, 10 mg/kg, ileum) was 610 ng/mL and the Tmax ([3]; male, 10 mg/kg, ileum) was 0.63 h. It also gave a bioavailability ([3]; male, 10 mg/kg, ileum) of 10.8%, a half-life ([3]; male, 10 mg/kg, ileum) of 5.06 h and an AUC ([3]; male, 10 mg/kg, jejunum) of 8110 ng·h/mL. It also gave a Cmax ([3]; male, 10 mg/kg, jejunum) of 12700 ng/mL, a Tmax ([3]; male, 10 mg/kg, jejunum) of 0.25 h and a bioavailability ([3]; male, 10 mg/kg, jejunum) of 44.2%. It also gave a half-life ([3]; male, 10 mg/kg, jejunum) of 5.29 h, an AUC ([3]; male, iv, 2 mg/kg) of 3670 ng·h/mL and a half-life ([3]; male, iv, 2 mg/kg) of 2 h. It also gave an AUC ([3]; male, po, 10 mg/kg) of 4370 ng·h/mL, a Cmax ([3]; male, po, 10 mg/kg) of 3060 ng/mL and a Tmax ([3]; male, po, 10 mg/kg) of 0.75 h. For the same molecule, the bioavailability ([3]; male, po, 10 mg/kg) was 23.8%, the half-life ([3]; male, po, 10 mg/kg) was 1.5 h and the site of absorption ([3]; regional dosing) was “preferentially absorbed in the jejunum”. The “hygroscopicity (GVS observation)” value ([4]; listed as Amorphous Compound 2, sodium salt) was “deliquesced”, the GVS mass change ([4]; at 80% R.H.) was > 30 % w/w and the IC50 (CYP2C19) was > 50 µM.
